The results in this text go back to PubChem BioAssay (NCI).

What all share (test): growth of human tumour cells (NCI), 48 h
The subject of experiment [1] is CCRF-CEM leukemia.
Experiment [2] deals with COLO 205 colon.
In experiment [3] the test system is EKVX NSCLC.
For experiment [4], the system named is HOP-92 NSCLC.
Experiment [5] deals with HS 578T breast.
Experiment [6] relates to MCF7 breast.
Experiment [7] has as its system NCI-H23 lung.
The subject of experiment [8] is NCI/ADR-RES ovarian.
The subject of experiment [9] is SF-295 CNS.
For experiment [10], the system named is HL-60(TB) leukemia.

The structures appear in SMILES notation.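 Dose response: 5 concentrations. Exposure: 48 h. Format: 96-well plates. Endpoint: linear interpolation; highest concentration if not reached. GI50 is the concentration that inhibits growth by half. TGI: concentration producing complete growth inhibition.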

Regarding `COc1ccc(CCN2CCCN3C2=Nc2ccccc2S3(=O)=O)cc1`, the GI50 in experiment [1] was 0.444 µM; in experiment [2], 0.329 µM; in experiment [3], 18.8 µM; in experiment [4], 0.348 µM; in experiment [5], 0.577 µM; in experiment [6], 0.329 µM. In addition, the GI50 in [7] was 0.474 µM; in experiment [8], 0.3 µM; in experiment [9], 0.389 µM. Besides, the TGI in [1] is greater than 100 µM; in [2], 1.48 µM; in experiment [3], greater than 100 µM; in experiment [4], 13.4 µM; in experiment [5], greater than 100 µM; in [6], greater than 100 µM. Further, the TGI in experiment [7] is greater than 100 µM; in experiment [8], 6.8 µM; in [9] it was greater than 100 µM.

As to `N=C(N)/N=C(\N)c1c(-c2cc(O)ccc2O)nc2sccn12`, the GI50 in experiment [1] was 10.3 µM; in experiment [2], 38.7 µM; in experiment [3] it was 98.6 µM; in [4], 18.3 µM; in experiment [5], greater than 100 µM; in experiment [6], 37.8 µM. For the same molecule, the GI50 in experiment [7] was 19.5 µM; in experiment [8] it was 82.3 µM; in experiment [9], greater than 100 µM. For the same molecule, the TGI in experiment [1] is 33.7 µM; in experiment [2] it was greater than 100 µM; in [3], greater than 100 µM; in experiment [4], 55.3 µM; in [5], greater than 100 µM; in experiment [6] it was greater than 100 µM. Also, the values for the TGI in experiment [7], in [8] and in [9] were 34.1 µM, greater than 100 µM and greater than 100 µM, respectively.

As to `CCOC(=O)C(Cc1c[nH]c2ccc([N+](=O)[O-])cc12)(NC(C)=O)C(=O)OCC`, the GI50 is greater than 1000 µM in experiment [2]; greater than 1000 µM in [3]; 80.8 µM in experiment [5]; 81 µM in [6]; 85 µM in experiment [7]; 53.6 µM in experiment [8]. Besides, the GI50 in experiment [9] was 30.5 µM. Besides, the TGI in experiment [2] is greater than 1000 µM; in experiment [3] it was greater than 1000 µM; in [4], greater than 423 µM; in experiment [5], greater than 765 µM; in experiment [6] it was greater than 1000 µM; in experiment [7], greater than 1000 µM. Moreover, the TGI in [8] and in experiment [9] was greater than 1000 µM throughout.

`C#CCSc1n[nH]c(-c2ccco2)n1`: the TGI in [2], in experiment [3], in experiment [10], in [4], in experiment [5] and in experiment [6] was greater than 100 µM each time. Further, the TGI in experiment [7], in [8] and in experiment [9] was greater than 100 µM in each case.

On to `O=C(N/N=C/c1ccccc1O)C(O)(c1ccccc1)c1ccccc1`, for which the GI50 is 2.26 µM in experiment [1]; 3.43 µM in experiment [2]; 3.6 µM in [3]; 2.88 µM in [10]; greater than 100 µM in experiment [4]; greater than 100 µM in experiment [5]. Further, the GI50 in experiment [7] is greater than 100 µM; in experiment [8], 7.65 µM; in [9] it was 4.5 µM. Besides, the TGI in experiment [1], in experiment [2], in experiment [3], in experiment [10], in [4] and in experiment [5] was greater than 100 µM throughout. For the same molecule, the TGI in experiment [7], in [8] and in [9] was greater than 100 µM in each case.

Take `COc1cc2c3c(c4ccc(OC)c(OC)c4c2cc1OC)CN1CCC[C@@H]1C3`: the TGI in experiment [1] was 0.651 µM; in experiment [3], 0.378 µM; in [10] it was 0.577 µM; in [4], 0.616 µM; in experiment [5], 0.593 µM; in experiment [6], greater than 20.3 µM. In addition, the TGI in experiment [7] is 0.637 µM; in [8] it was 0.4 µM; in experiment [9] it was 6.39 µM.

On to `Cc1nc2ccccn2c1NC(=O)NNC(=S)Nc1ccc(Br)cc1`, for which the GI50 was 40.1 µM in [1]; 29.4 µM in experiment [2]; 46.4 µM in experiment [3]; 24.4 µM in [10]; 49.4 µM in [4]; 54.8 µM in experiment [5]. The GI50 is 29.4 µM in experiment [6], 24.5 µM in experiment [8] and 57.5 µM in [9]. The TGI in experiment [1] was greater than 100 µM; in experiment [2] it was 84.5 µM; in [3] it was greater than 100 µM; in experiment [10], greater than 100 µM; in experiment [4], greater than 100 µM; in [5], greater than 100 µM. For the same molecule, the TGI in experiment [6] is greater than 100 µM; in [8], 58 µM; in [9], greater than 100 µM.

Consider `O=Nc1ccc(O)c2ccccc12`, for which the GI50 was 1.93 µM in experiment [2]; 1.88 µM in experiment [3]; 3.31 µM in experiment [4]; 0.868 µM in experiment [5]; 1.81 µM in experiment [6]; 1.45 µM in [7]. Moreover, the GI50 in [8] is 1.11 µM; in experiment [9], 2.04 µM. The TGI in experiment [2] amounted to 3.92 µM; in experiment [3], 4.43 µM; in [4] it was 9.01 µM; in experiment [5], 4.18 µM; in experiment [6], 4.31 µM; in [7], 4.17 µM. Further, the TGI in experiment [8] stood at 6.61 µM; in experiment [9], 4.55 µM.

As for `CC1=C(C(=O)Nc2ccccc2C)C(c2ccc(C3C(C(=O)Nc4ccccc4C)=C(C)NC(C)=C3C(=O)Nc3ccccc3C)cc2)C(C(=O)Nc2ccccc2C)=C(C)N1`, the TGI in [1] came to 7.82 µM; in [2], 14.5 µM; in experiment [3], 19.2 µM; in [10], 6.15 µM; in experiment [4] it was 20.6 µM; in [5] it was 55.3 µM. Further, the figures for the TGI in experiment [6], in experiment [7] and in [9] were 19.5 µM, 9.6 µM and 17.1 µM, respectively.

With `NC(=O)C1c2ccccc2C=Cc2ccccc21`, the GI50 in experiment [2] is greater than 100 µM; in experiment [3], greater than 100 µM; in experiment [10] it was greater than 100 µM; in [4] it was 51.6 µM; in experiment [5] it was greater than 100 µM; in experiment [6], greater than 100 µM. Further, the GI50 in experiment [7], in experiment [8] and in experiment [9] was greater than 100 µM each time. The TGI in experiment [2], in [3], in [10], in experiment [4], in experiment [5] and in experiment [6] was greater than 100 µM each time. In addition, the TGI in experiment [7], in experiment [8] and in [9] was greater than 100 µM each time.
